From ChEMBL document CHEMBL1132753, “Structure-activity relationship study of asiatic acid derivatives against beta amyloid (A beta)-induced neurotoxicity” (2000)

Test system: B103 cell line
Assay: In vitro percent protective effect against Amyloid Beta(A beta)-induced neurotoxicity in B103 cells
Format: functional, Rattus norvegicus
Parameters: concentration or dose not given beside the values

In order of falling Protection:
1. C[C@H]1[C@H](C)CC[C@]2(C(=O)O)CC[C@]3(C)C(=CC[C@@H]4[C@@]5(C)C[C@@H](O)[C@H](O)[C@@](C)(CO)[C@@H]5CC[C@]43C)[C@H]12 [ASIATIC ACID]  97%
2. C[C@@H]1CC[C@]2(C(=O)OC3CCCCO3)CC[C@]3(C)C(=CCC4[C@@]5(C)C[C@@H](O)[C@H](O)[C@@](C)(CO)C5CC[C@]43C)C2[C@H]1C (stereo partly specified)  92%
3. C[C@H]1[C@H](C)CC[C@]2(C(=O)O)CC[C@]3(C)C(=CC[C@@H]4[C@@]5(C)CC[C@H](O)[C@@](C)(CO)[C@@H]5CC[C@]43C)[C@H]12  87%
4. C[C@@H]1CC[C@]2(C(=O)O)CC[C@]3(C)C(=CCC4[C@@]5(C)C[C@@H](O)[C@@H]6OC(C)(C)OC[C@@]6(C)C5CC[C@]43C)C2[C@H]1C (stereo partly specified)  66%
5. COC(=O)[C@]12CC[C@@H](C)[C@H](C)C1C1=CCC3[C@@]4(C)C[C@@H](O)[C@H](O)[C@@](C)(CO)C4CC[C@@]3(C)[C@]1(C)CC2 (stereo partly specified)  58%
6. C[C@H]1[C@H](C)CC[C@]2(C(=O)O)CC[C@]3(C)C(=CC[C@@H]4[C@@]5(C)C[C@@H](O)[C@H](O)[C@@](C)(CO)[C@@H]5[C@H](O)C[C@]43C)[C@H]12 [MADECASSIC ACID]  56%
7. C[C@@H]1CC[C@]2(C(=O)O)CC[C@]3(C)C(=CCC4[C@@]5(C)CC(=O)[C@H](O)[C@@](C)(CO)C5CC[C@]43C)C2[C@H]1C (stereo partly specified)  50%
8. C[C@@H]1CC[C@]2(C(=O)O)CC[C@]3(C)C(=CCC4[C@@]5(C)CCCC(C)(C)C5CC[C@]43C)C2[C@H]1C (stereo partly specified)  40%
9. C[C@H]1[C@H](C)CC[C@]2(C(=O)O[C@@H]3O[C@H](CO[C@@H]4O[C@H](CO)[C@@H](O[C@@H]5O[C@H](C)[C@H](O)[C@@H](O)[C@H]5O)[C@H](O)[C@H]4O)[C@@H](O)[C@H](O)[C@H]3O)CC[C@]3(C)C(=CC[C@@H]4[C@@]5(C)C[C@@H](O)[C@H](O)[C@@](C)(CO)[C@@H]5CC[C@]43C)[C@H]12 [ASIATICOSIDE]  24%
10. CCCCCCCCOCOC(=O)[C@]12CC[C@@H](C)[C@H](C)C1C1=CCC3[C@@]4(C)CC(O)[C@H](O)[C@@](C)(CO)C4CC[C@@]3(C)[C@]1(C)CC2 (stereo partly specified)  22%
11. CC(=O)O[C@@H]1C[C@@]2(C)C(CC[C@]3(C)C2CC=C2C4[C@@H](C)[C@H](C)CC[C@]4(C(=O)O)CC[C@]23C)[C@](C)(CO)[C@H]1O (stereo partly specified)  22%
